Here are results for 5 molecules from ChEMBL document CHEMBL5465560, “Selectivity Literature for EUbOPEN Chemogenomic Library” (2024).

For test [1], the target named is T1, Mitogen-activated protein kinase kinase kinase 6 (Homo sapiens) (UniProt O95382).
T1 sequence (whole entry): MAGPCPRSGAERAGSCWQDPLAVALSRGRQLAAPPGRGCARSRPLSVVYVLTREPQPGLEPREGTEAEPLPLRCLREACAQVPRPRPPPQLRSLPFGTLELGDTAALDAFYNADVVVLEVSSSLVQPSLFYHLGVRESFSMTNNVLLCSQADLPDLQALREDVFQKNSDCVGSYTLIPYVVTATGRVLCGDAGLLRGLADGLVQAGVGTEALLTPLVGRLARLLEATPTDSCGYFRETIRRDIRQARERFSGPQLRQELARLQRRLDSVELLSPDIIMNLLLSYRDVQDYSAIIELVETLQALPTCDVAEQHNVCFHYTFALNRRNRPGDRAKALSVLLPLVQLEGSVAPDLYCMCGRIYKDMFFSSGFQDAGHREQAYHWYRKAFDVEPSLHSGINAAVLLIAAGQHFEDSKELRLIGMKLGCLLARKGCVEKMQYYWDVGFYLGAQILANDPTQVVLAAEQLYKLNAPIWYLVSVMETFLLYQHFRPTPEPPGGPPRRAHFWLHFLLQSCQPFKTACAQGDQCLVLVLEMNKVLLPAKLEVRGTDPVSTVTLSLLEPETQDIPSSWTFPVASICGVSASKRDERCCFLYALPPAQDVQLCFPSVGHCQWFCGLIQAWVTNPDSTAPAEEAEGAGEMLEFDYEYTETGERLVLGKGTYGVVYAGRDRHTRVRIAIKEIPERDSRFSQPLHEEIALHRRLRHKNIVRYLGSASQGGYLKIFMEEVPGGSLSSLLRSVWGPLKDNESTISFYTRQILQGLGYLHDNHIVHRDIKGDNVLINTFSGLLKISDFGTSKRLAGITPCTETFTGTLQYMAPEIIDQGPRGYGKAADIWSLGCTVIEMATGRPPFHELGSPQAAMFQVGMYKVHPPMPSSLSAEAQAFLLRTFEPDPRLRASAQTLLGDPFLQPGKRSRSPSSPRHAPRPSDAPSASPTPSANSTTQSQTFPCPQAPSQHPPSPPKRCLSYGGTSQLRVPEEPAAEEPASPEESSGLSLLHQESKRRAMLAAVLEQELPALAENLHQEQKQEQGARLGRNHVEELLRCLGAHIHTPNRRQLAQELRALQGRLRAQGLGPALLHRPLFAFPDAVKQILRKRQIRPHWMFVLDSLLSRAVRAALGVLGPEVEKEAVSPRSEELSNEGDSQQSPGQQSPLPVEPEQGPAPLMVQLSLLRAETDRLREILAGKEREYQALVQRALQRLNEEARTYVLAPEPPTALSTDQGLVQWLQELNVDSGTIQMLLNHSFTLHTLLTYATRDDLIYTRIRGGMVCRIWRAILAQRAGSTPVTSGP
To be noted: at 10 µM.

Test [2] has as its target T2, Hormonally up-regulated neu tumor-associated kinase (Homo sapiens) (UniProt P57058).
T2 sequence (whole entry): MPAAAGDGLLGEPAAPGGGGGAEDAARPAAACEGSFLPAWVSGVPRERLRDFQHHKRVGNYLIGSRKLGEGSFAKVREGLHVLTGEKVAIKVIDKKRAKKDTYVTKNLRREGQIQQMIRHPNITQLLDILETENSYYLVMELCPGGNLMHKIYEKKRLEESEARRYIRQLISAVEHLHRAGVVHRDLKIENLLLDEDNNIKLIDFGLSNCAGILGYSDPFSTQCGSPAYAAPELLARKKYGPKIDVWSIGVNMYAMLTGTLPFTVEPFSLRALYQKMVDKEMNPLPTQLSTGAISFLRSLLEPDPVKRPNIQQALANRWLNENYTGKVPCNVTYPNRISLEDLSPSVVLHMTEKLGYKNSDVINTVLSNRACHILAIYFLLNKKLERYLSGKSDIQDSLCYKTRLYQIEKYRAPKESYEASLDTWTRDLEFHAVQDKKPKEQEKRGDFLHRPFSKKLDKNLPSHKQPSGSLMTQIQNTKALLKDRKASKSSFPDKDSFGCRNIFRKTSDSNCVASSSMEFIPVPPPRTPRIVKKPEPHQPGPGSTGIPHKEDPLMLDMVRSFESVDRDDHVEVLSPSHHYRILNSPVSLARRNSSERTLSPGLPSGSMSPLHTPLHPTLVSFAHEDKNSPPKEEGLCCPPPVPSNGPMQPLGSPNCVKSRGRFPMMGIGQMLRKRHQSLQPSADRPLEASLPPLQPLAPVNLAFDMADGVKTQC
The test is described as follows: Selectivity interaction (KinomeScan (DiscoverX)) EUB0000666a HUNK. Conditions: at 10 µM.

The target of test [3] is Serine/threonine-protein kinase PAK 3 (Homo sapiens) (UniProt O75914). The test is described as follows: Selectivity interaction (KinomeScan (DiscoverX)) EUB0000666a PAK3. To be noted: at 10 µM.
Sequence of Serine/threonine-protein kinase PAK 3 (Homo sapiens) (O75914 whole entry, looked up): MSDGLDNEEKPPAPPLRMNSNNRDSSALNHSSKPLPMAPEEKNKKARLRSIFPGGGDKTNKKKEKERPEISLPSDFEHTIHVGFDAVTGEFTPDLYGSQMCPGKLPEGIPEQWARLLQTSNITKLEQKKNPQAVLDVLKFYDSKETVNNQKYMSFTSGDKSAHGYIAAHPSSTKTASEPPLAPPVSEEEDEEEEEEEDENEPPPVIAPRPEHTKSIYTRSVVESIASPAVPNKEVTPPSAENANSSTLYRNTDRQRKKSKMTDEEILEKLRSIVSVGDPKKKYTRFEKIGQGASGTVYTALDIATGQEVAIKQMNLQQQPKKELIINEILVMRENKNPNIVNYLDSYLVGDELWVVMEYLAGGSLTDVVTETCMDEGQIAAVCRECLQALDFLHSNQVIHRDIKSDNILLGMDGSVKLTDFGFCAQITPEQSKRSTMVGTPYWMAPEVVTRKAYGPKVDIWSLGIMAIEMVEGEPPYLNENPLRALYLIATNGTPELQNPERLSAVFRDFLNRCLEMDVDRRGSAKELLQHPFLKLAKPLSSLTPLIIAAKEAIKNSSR
Test [4] has as its target T3, Serine/threonine-protein kinase DCLK1 (Homo sapiens) (UniProt O15075).
T3 sequence (whole entry): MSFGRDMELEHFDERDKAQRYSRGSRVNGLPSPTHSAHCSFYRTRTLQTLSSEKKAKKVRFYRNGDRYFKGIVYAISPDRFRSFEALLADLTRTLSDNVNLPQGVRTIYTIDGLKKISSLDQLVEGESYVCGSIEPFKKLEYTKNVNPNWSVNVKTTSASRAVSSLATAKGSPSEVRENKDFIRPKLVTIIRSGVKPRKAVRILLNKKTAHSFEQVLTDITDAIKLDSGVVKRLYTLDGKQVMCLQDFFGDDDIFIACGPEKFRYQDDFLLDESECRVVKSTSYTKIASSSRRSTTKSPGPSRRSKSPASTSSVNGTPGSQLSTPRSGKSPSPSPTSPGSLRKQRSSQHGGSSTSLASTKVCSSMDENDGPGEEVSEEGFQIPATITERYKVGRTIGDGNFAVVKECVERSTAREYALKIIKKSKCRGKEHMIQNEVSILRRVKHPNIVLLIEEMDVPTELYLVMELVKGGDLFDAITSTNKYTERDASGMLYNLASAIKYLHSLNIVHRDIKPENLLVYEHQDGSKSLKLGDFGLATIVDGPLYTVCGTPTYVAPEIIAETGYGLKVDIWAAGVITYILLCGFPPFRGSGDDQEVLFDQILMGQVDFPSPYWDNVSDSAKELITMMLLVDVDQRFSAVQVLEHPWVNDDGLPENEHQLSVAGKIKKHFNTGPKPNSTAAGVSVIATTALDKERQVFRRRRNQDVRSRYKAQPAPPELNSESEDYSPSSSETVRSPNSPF
Briefly: Selectivity interaction (KinomeScan (DiscoverX)) EUB0000229b DCLK1. Conditions: at 10 µM.

For test [5], the target named is Mitogen-activated protein kinase kinase kinase kinase 5 (Homo sapiens) (UniProt Q9Y4K4). Briefly: Selectivity interaction (KinomeScan (DiscoverX)) EUB0000229b MAP4K5. Conditions: at 10 µM.
Sequence of Mitogen-activated protein kinase kinase kinase kinase 5 (Homo sapiens) (Q9Y4K4 whole entry, looked up): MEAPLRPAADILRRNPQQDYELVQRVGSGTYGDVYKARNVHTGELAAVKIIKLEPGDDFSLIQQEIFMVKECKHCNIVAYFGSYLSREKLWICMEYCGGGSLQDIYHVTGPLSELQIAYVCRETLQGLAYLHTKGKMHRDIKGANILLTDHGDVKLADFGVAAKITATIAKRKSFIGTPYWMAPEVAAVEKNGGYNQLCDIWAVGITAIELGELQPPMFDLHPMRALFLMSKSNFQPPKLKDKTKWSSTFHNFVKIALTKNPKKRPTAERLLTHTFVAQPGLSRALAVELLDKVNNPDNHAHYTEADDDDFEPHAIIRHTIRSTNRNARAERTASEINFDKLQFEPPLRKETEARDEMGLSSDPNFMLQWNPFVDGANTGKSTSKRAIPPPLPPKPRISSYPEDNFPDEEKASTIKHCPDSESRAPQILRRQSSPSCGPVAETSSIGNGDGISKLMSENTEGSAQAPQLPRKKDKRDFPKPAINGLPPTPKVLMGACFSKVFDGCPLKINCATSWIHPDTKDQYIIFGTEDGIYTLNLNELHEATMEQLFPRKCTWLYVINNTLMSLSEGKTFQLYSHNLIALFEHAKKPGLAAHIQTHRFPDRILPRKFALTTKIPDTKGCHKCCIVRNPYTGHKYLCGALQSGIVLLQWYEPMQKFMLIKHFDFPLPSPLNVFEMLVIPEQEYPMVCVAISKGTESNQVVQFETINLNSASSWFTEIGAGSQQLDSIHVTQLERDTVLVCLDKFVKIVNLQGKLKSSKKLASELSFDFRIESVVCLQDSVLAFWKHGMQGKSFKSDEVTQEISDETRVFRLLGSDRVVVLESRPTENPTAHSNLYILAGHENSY
The target of test [6] is Serine/threonine-protein kinase B-raf (Homo sapiens) (UniProt P15056). Briefly: Selectivity interaction (Kinase panel (Invitrogen)) EUB0000639a BRAF. To be noted: at 200 nM.
Sequence of Serine/threonine-protein kinase B-raf (Homo sapiens) (P15056 whole entry): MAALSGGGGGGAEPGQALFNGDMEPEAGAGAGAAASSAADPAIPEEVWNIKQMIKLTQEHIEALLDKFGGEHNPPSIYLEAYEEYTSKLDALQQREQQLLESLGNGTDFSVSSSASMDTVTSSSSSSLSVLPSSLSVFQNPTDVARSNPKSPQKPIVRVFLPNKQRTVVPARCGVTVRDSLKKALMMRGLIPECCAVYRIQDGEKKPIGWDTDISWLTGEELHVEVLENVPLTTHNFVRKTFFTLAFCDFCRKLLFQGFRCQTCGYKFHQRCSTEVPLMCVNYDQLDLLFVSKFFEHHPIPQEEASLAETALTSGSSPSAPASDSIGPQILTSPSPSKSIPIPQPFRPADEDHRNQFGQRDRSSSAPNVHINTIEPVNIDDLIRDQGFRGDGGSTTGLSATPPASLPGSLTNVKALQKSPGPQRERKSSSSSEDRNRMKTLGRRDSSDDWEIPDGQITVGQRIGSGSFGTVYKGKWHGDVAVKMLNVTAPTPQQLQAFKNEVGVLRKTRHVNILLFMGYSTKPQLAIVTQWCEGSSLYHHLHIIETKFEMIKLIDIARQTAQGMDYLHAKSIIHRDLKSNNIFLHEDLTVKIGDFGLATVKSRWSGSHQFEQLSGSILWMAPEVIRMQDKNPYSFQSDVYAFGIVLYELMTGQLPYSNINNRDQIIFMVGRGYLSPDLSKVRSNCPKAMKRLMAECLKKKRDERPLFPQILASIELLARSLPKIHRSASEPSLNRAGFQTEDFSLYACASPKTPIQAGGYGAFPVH
A short description of test [7]: Selectivity interaction (KinomeScan (DiscoverX)) EUB0000695a CDPK1. To be noted: at 100 nM.

As to `Cc1cc([C@@H](C)Nc2ccccc2C(=O)O)c2nc(N3CCOCC3)cc(=O)n2c1` [AZD-6482], the % of control in test [1] was found to be 95%. Consider `O=C(NOC[C@H](O)CO)c1ccc(F)c(F)c1Nc1ccc(I)cc1F`, for which the % of control in test [2] and in test [3] was 100% throughout. Take `COc1cc(N(C)c2ccnc3ccc(C(F)(F)F)cc23)cc(OC)c1OC`: the results for the % binding in test [4] and in test [5] were 73% and 97%, respectively.

`CC[C@@H]1[C@H](F)C(=O)N[C@@H]1COc1nccc2cc(C(N)=O)c(OC)cc12` [ZIMLOVISERTIB]: the % of inhibition in test [6] was found to be 8.97%.

In the case of `Cc1cc(F)c(C(=O)Nc2cccc(-c3nncn3C(C)C)n2)cc1-n1cnc(C2CC2)c1`, the % of control in test [7] was found to be 100%.
